In patent US20020183384A1, “Methods of treating nuclear factor-kappa B mediated diseases and disorders” (priority 2001, published 2002):

What follows are compounds tested on NF-κB mediated transcription (assay: NF-κB driven β-lactamase reporter assay in ECV-304 NF-κB.βlaZ cells (AURORA CCF2 fluorescence)). Conditions: 10 μM compound; ECV-304 NF-κB.βlaZ cells stimulated with 10 ng/mL TNF-α or 100 pg/mL IL-1β, 6 hours at 37° C.; inhibition of maximum blue/green ratio.
Type: cell-based, human
Source text: Introduction: Described below is an in vitro, cell-based, high throughput screening assay that reliably identifies inhibitors of NF-κB mediated transcription.
The assay takes advantage of AURORA (Aurora Bioscience Corporation, La Jolla, Calif.) fluorescence technology. Endothelial cell vein-304 (ECV-304) cells, an endothelial-like immortalized cell type, may be stably transfected with a plasmid vector containing the cDNA for the enzyme β-lactamase (under the control of a basal promoter, Stratagene pNFκB-luc vector) and 5 copies of an human immunodeficiency virus-1 (HIV-1) NF-κB binding site. ECV-304 cells are described by Takahashi K. et al. in Spontaneous Transformation and Immobilization of Human Endothelial Cells, In Vitro Cell. Dev. Biol. 1990;25:265-274. Activation of NF-κB in ECV-304 by cytokines such as TNF-α or interleuken-1 beta (IL-1β) results in the production of β-lactamase, which cleaves a green fluorescent substrate (excitation/emission wavelengths 395 nm1530 nm) to yield a blue fluorescent product (excitation/emission wavelengths 395 nm/460 nm). Visually, the uncleaved green fluorescent substrate is sequestered intracellularly and emits green fluorescence, while the cleaved product emits blue fluorescence. Fluorescence is quantitated spectrophotometrically, and the spectral intensity of blue fluorescence versus green fluorescence can be used to calculate the degree of activation of NF-κB.
The assay was performed as outlined here and described in detail below. ECV-304 cells permanently transfected with the NF-κB driven β-lactamase gene (ECV-304 NF-κB.βlaZ) were plated in clear-bottom, black 96-well plates (1.25×10^4 cells/well) in media-199 (M-199) media containing 2% fetal bovine serum (FBS). […] The AURORA fluorescent disclosing reagent was then added. After one additional hour, the plates were read in a fluorometer at the blue 395 nm/460 nm (excitation/emission) and green 395 nm/530 nm wavelengths. Then the blue/green emission ratio was calculated. […] An IC50 for said sulfonylaminocarbonyl derivative was determined from a dose-response curve. This assay was designed to be optionally run in either high or low throughput screening modes.
Five copies of the HIV-1 NF-κB binding site (5′-[…]-3′) along with a TATA box were inserted into the EcorRI/BamHI sites of plasmid pMCRBlaZ to create plasmid p5×KBBlaZ, which procedure is illustrated in Scheme 1 below. [formula]
Cells were selected for antibiotic resistance with Zeocin for approximately 2 weeks. After the stable population had been expanded to a significant number of cells, it was stimulated with IL-1β and stained with AURORA CCF2 dye, a membrane permeant, intracellularly-trapped, fluorescent substrate. Cells that fluoresced blue (indicating a positive response of the NF-κB/β-lactamase reporter to stimulation by IL-1β) in the stimulated/stained population were then sorted by flow cytometry into a pool. The pool was expanded and stained with CCF2, and then the cells that fluoresced green from this unstimulated population (indicating a low background of the NF-κB/β-lactamase reporter construct) were cloned by flow cytometry after adding 1 cell per well in 96-well plates. Clones were allowed to expand. Each cloned cell line was then examined for fold stimulation after stimulation with IL-1β using a CCF2 reporter assay, and these stimulated cells were compared to unstimulated cells.
Cells: ECV-304 NF-κB β-Lactamase clone 1E8
Inhibitors: Prepared stock solutions of aminosulfonyl derivatives at 10 mM concentration in DMSO;
c) Added 10 μL of B into appropriate well in assay plate (the final concentration of drug is 10 μM), and […]

Q: For CCCCCCCCCCN(CCCCCCCCCC)S(=O)(=O)NC(=O)Nc1c(C(C)C)cccc1C(C)C [Example 75, Urea, N-[2,6-bis (1-methylethyl)phenyl]-N′-[(didecylamino)sulfonyl]-], which “Percent Inhibition at 10 μM” value is on record?
A: <10%

Same assay, conditions: 10 μM compound; ECV-304 NF-κB.βlaZ cells stimulated with 10 ng/mL TNF-α or 100 pg/mL IL-1β, 6 hours at 37° C.; inhibition of maximum blue/green ratio; 10 µM

Q: Which “Percent Inhibition at 10 μM” value does the source give for CCCCCCCCCCCCOC(=O)NS(=O)(=O)Nc1c(C(C)C)cccc1C(C)C [Example 53, Carbamic acid, [[[2,6-bis(1-methylethyl)phenyl]amino]sulfonyl]-, dodecyl ester] here?
A: 61.31%

Same assay, conditions: Homo sapiens, ECV-304, 6 h, 10 μM compound; ECV-304 NF-κB.βlaZ cells stimulated with 10 ng/mL TNF-α or 100 pg/mL IL-1β, 6 hours at 37° C.; inhibition of maximum blue/green ratio; read-out: Percent Inhibition at 10 μM

Q: For COC(=O)NS(=O)(=O)Nc1c(C(C)C)cccc1C(C)C [Example 54, Carbamic acid, [[[2,6-bis(1-methylethyl)phenyl]amino]sulfonyl]-, methyl ester], which inhibition at 10 µM is on record?
A: < 10%

Q: How did the inhibition at 10 µM turn out when CCCCCCCCCCCCOC(=O)NS(=O)(=O)Oc1c(C(C)C)cccc1C(C)C [Example 55, Carbamic acid, [[2,6-bis(1-methylethyl)phenoxy]sulfonyl]-, dodecyl ester] was run?
A: 55.1%

Q: Which inhibition at 10 µM does the source give for CCCCCCCCCCCCCCCCCCOS(=O)(=O)NC(=O)Nc1c(C(C)C)cccc1C(C)C [Example 60, Sulfamic acid, [[[2,6-bis(1-methylethyl)phenyl]amino]carbonyl]-, octadecyl ester] here?
A: < 10%

Q: How did the inhibition at 10 µM turn out when CCCCCCCCCCCCOC(=O)NS(=O)(=O)OCCCCCCCCCCCC [Example 61, Carbamic acid, [(dodecyloxy)sulfonyl]-, dodecyl ester] was run?
A: 27.4%

Q: With CC(C)c1cccc(C(C)C)c1NC(=O)NS(=O)(=O)N(C(C)C)C1CCCCC1 [Example 63, Urea, N-[2,6-bis(1-methylethyl)phenyl]-N′-[[cyclohexyl(1-methylethyl)amino]-sulfonyl]-] as the compound, how does the inhibition at 10 µM read?
A: 23%

Q: How did the inhibition at 10 µM turn out when CCCCCN(CCCCC)S(=O)(=O)NC(=O)Nc1c(C(C)C)cccc1C(C)C [Example 64, Urea, N-[2,6-bis(1-methylethyl)phenyl]-N′-[(dipentylamino)sulfonyl]-] was run?
A: 55.4%

Q: How did the inhibition at 10 µM turn out when CC(C)CN(CC(C)C)S(=O)(=O)NC(=O)Nc1c(C(C)C)cccc1C(C)C [Example 68, Urea, N-[2,6-bis(1-methylethyl)phenyl]-N′-[[bis(2-methylpropyl)amino]-sulfonyl]-] was run?
A: 34.3%

Q: For CCCCCCCCCCCCOS(=O)(=O)NC(=O)Nc1c(C(C)C)cccc1C(C)C [Example 69, Sulfamic acid, [[[2,6-bis(1-methylethyl)phenyl]amino]carbonyl]-, dodecyl ester], which inhibition at 10 µM is on record?
A: 75.5%

Q: CC(C)c1cccc(C(C)C)c1NC(=O)NS(=O)(=O)N1CCCC1 [Example 70, Urea, N-[2,6-bis(1-methylethyl)phenyl]-N′-(1-pyrrolidinylsulfonyl)-] was tested. Which inhibition at 10 µM did it give?
A: < 10%

Q: With CC(C)c1cccc(C(C)C)c1NC(=O)NS(=O)(=O)N1CCCCC1 [Example 71, Urea, N-[2,6-bis(1-methylethyl)phenyl]-N′-(1-piperidinylsulfonyl)-] as the compound, how does the inhibition at 10 µM read?
A: < 10%

Q: How did the inhibition at 10 µM turn out when C=CCN(CC)S(=O)(=O)NC(=O)Nc1c(C(C)C)cccc1C(C)C [Example 73, Urea, N-[2,6-bis(1-methylethyl)phenyl]-N′-[[ethyl(2-propenyl)amino]-sulfonyl]-] was run?
A: < 10%

Q: Which inhibition at 10 µM does the source give for CCCCCCCCCCCCN(CCCCCCCCCCCC)S(=O)(=O)NC(=O)Nc1c(C(C)C)cccc1C(C)C [Example 76, Urea, N-[2,6-bis(1-methylethyl)phenyl]-N′-[(didodecylamino)sulfonyl]-] here?
A: < 10%

Q: Which inhibition at 10 µM does the source give for CCCN(CCC)S(=O)(=O)NC(=O)Nc1c(C(C)C)cccc1C(C)C [Example 77, Urea, N-[2,6-bis(1-methylethyl)phenyl]-N′-[(dipropylamino)sulfonyl]-] here?
A: < 10%

Q: How did the inhibition at 10 µM turn out when CC(C)c1cccc(C(C)C)c1NC(=O)NS(=O)(=O)N(C1CCCCC1)C1CCCCC1 [Example 78, Urea, N-[2,6-bis(1-methylethyl)phenyl]-N′-[(dicyclohexylamino)-sulfonyl]-] was run?
A: 40.9%

Q: Which inhibition at 10 µM does the source give for CCCCCCCCCCCCOC(=O)NS(=O)(=O)Nc1c(OC)cc(OC)cc1OC [Example 79, Carbamic acid, [[(2,4,6-trimethoxyphenyl)amino]sulfonyl]-, dodecyl ester] here?
A: < 10%

Q: With CCCCCCCCCCCCCCCCCCN(C)S(=O)(=O)NC(=O)Nc1c(C(C)C)cccc1C(C)C [Example 80, Urea, N-[2,6-bis(1-methylethyl)phenyl]-N′-[(methyloctadecylamino)-sulfonyl]-] as the compound, how does the inhibition at 10 µM read?
A: < 10%

Q: C=CCN(CC=C)S(=O)(=O)NC(=O)Nc1c(C(C)C)cccc1C(C)C [Example 81, Urea, N-[2,6-bis(1-methylethyl)phenyl]-N′-[(di-2-propenylamino)-sulfonyl]-] was tested. Which inhibition at 10 µM did it give?
A: < 10%

Q: CC(C)c1cccc(C(C)C)c1NC(=O)NS(=O)(=O)N(C(C)C)C(C)(C)C [Example 82, Urea, N-[2,6-bis(1-methylethyl)phenyl]-N′-[[(1,1-dimethylethyl)(1-methylethyl)-amino]sulfonyl]-] was tested. Which inhibition at 10 µM did it give?
A: < 10%

Q: CCC(C)N(C(C)CC)S(=O)(=O)NC(=O)Nc1c(C(C)C)cccc1C(C)C (stereo not drawn) [Example 83, Urea, N-[2,6-bis(1-methylethyl)phenyl]-N′-[[bis(1-methylpropyl)-amino]-sulfonyl]-] was tested. Which inhibition at 10 µM did it give?
A: 10.6%

Same assay, conditions: Homo sapiens; 10 μM compound; ECV-304 NF-κB.βlaZ cells stimulated with 10 ng/mL TNF-α or 100 pg/mL IL-1β, 6 hours at 37° C.; inhibition of maximum blue/green ratio; read-out: Percent Inhibition at 10 μM

Q: With COC(=O)NS(=O)(=O)Oc1c(C(C)C)cccc1C(C)C [Example 56, Carbamic acid, [[2,6-bis(1-methylethyl)phenoxy]sulfonyl]-, methyl ester] as the compound, how does the inhibition at 10 µM read?
A: < 10%

Q: CCCCCCOS(=O)(=O)NC(=O)Oc1c(C(C)C)cccc1C(C)C [Example 57, Carbamic acid, [(hexyloxy)sulfonyl]-, 2,6-bis(1-methylethyl)phenyl ester] was tested. Which inhibition at 10 µM did it give?
A: 20.4%

Q: How did the inhibition at 10 µM turn out when CC(C)c1cccc(C(C)C)c1OC(=O)NS(=O)(=O)N1CCOCC1 [Example 58, Carbamic acid, (4-morpholinylsulfonyl)-, 2,6-bis(1-methylethyl)phenyl ester] was run?
A: < 10%

Q: Which inhibition at 10 µM does the source give for CC(C)c1cccc(C(C)C)c1OC(=O)NS(=O)(=O)N1CCCCC1 [Example 59, Carbamic acid, (1-piperidinylsulfonyl)-, 2,6-bis(1-methylethyl)phenyl ester] here?
A: < 10%

Q: How did the inhibition at 10 µM turn out when CC(C)c1cccc(C(C)C)c1OC(=O)NS(=O)(=O)N(C(C)C)C(C)C [Example 62, Carbamic acid, [[bis(1-methylethyl)amino]sulfonyl]-, 2,6-bis(1-methylethyl)-phenyl ester] was run?
A: < 10%

Q: With CC(C)c1cccc(C(C)C)c1OC(=O)NS(=O)(=O)NC(c1ccccc1)C(C)C (stereo not drawn) [Example 65, Carbamic acid, [[((1-methylethyl)phenylmethyl)amino]sulfonyl]-, 2,6-bis(1-methylethyl)phenyl ester] as the compound, how does the inhibition at 10 µM read?
A: 16.4%

Q: With CC(C)c1cccc(C(C)C)c1OC(=O)NS(=O)(=O)N1CCCC1 [Example 66, Carbamic acid, (1-pyrrolidinylsulfonyl)-, 2,6-bis(1-methylethyl)phenyl ester] as the compound, how does the inhibition at 10 µM read?
A: < 10%

Q: Which inhibition at 10 µM does the source give for CCCCCCNS(=O)(=O)NC(=O)Oc1c(C(C)C)cccc1C(C)C [Example 67, Carbamic acid, [(hexylamino)sulfonyl]-, 2,6-bis(1-methylethyl)phenyl ester] here?
A: 13.8%

Q: CC(C)c1cccc(C(C)C)c1OC(=O)NS(=O)(=O)N1CCc2ccccc21 [Example 72, Carbamic acid, [(2,3-dihydro-1H-indol-1-yl)sulfonyl]-, 2,6-bis(1-methylethyl)-phenyl ester] was tested. Which inhibition at 10 µM did it give?
A: 14.1%
